Entries after “also recorded” stand apart in the source; their conditions may differ. Where two headings read alike, the source gives them in different places.
Legend:
[1] = system: Nannochloropsis oculata; experiment: 500 mL batch culture: growth, dry weight and lipid extract (gravimetric); type: cell-based; details: for effect on growth and lipid levels: 500 mL batch culture; for Change in Lipids: gravimetric, relative to averaged control without DMSO; for Specific Growth Rate: mid-exponential growth phase
Experimental: (§1) Batch cultures were grown in 500 mL Pyrex media bottles with stirring and air bubbling (homemade manifold with Petco air pump, 2-4% CO2). Incoming air was sterile filtered by Polyvent 4 disposable filters (Whatman, Kent, UK). […] To minimize bacterial contamination, all equipment and materials were autoclaved and media was added to flask in a Purifier Vertical Clean bench (Labconco, Kansas City, Mo.). […] The amount of DMSO is standardized for all experiments to 0.4%.
(§2) For all compound cultures, the 2 mL DMSO stock solution was added to media (without algae) first and mixed well. Control cultures were grown without DMSO. DMSO controls consisted of 0.04-1.0% DMSO. After the addition of algae and media, the container was plugged with a bug stopper vented closure cap and mixed thoroughly. Absorbance is measured immediately for Day 0 analysis. Afterward, absorbance was measured every 1-2 days with a cuvette (1 mL volume) on the Thermo Scientific Genesys 10S V is Spectrophotometer (ThermoFisher, San Jose) at 680 nm.
(§3) Batch cultures were also repeated in triplicate and compared to a control culture grown at the same time. Algae were harvested and lipids were extracted for gravimetric analysis.
(§4) The nonpolar algal extracts were harvested from 500 mL cultures when indicated on growth curves, a minimum of 3 days into stationary phase.
(§5) Cell density was monitored by measuring absorbance at 680 nm every 1-2 days.
(§6) 500-mL cultures were harvested 6 days into stationary phase based on absorbance values. Cells were concentrated by centrifugation and lyophilization to remove water. Nonpolar lipids were extracted by sonication and solvent (chloroform-methanol and PBS buffer). […] Changes in lipid levels for batch cultures were determined by crude lipid extract mass.

[2] = system: Nannochloropsis salina
Experimental: (§7) Stock cultures were aerated by stirring with bubbling air (homemade manifold with Petco air pump, 2-4% CO2) or by orbital shaking (Thermo Scientific MAXQ 2000) at a constant speed of 150 rpm at 22±3° C. with a 16:8 hour light/dark cycle. Stocks were kept at stationary phase for use. Algae were prepared as dictated by culture center.
(§8) Compounds were selected based on reported biological activity in non-microalgae organisms. To ensure that compounds retained their quality, they were stored under advised conditions after purchasing from the manufacturer. Solutions of all assay compounds were prepared as 10 mM stock solutions by dissolving in DMSO in 2-dram amber vials and then stored in darkness −20° C. 96-well PCR plates were used to create a stock plate layout that was then transferred to the algae microplates. A plate map was used to distribute each compound to a well based on molecule name, collection number, and CAS number. For 20 μM and 200 nM assay plates, 10 mM compound stock in DMSO was diluted into plate maps of 5 mM and 50 μM assay stocks, respectively.
(§9) All materials for assay experiments were autoclaved before each use to maintain axenic algae cultures. Algae species were checked for homogeneity using a TS-100 light microscope (Nikon, Japan). […] Diluted stock solutions were made immediately prior to use for consistency and optimal plate growth. Cell density was measured on a Thermo Scientific Genesys 10S Vis Spectrophotometer (ThermoFisher, San Jose), using a 1 mL cuvette at 680 nm.
(§10) Plates were originally run in triplicate, before replicates were increased to quadruplicate, along with a separate control plate to compare growth. Due to extensive evaporation in exterior wells over time, our unique algae plate layout was designed to use the 60 interior wells out of 96 wells for the experiment. The 36 outer wells were filled with Millipore water and media to prevent evaporation and edge effects in the inner algae wells, as well as serve as blanks. The 60 wells with algae contained a total volume of 251 μL (100 μL of media+DMSO compound stock +150 μL dilute algae stock). For 20 μM and 200 nM assay plates, 10 mM compound stock in DMSO is diluted into plate maps of 5 mM and 50 μM assay stocks, respectively. […] Plates were parafilmed during growth to limit the amount of evaporation that can occur. Plates were numbered, and numerically ordered to ensure they got the same shaker space.
(§11) The shakers are kept at a constant shaking of 150 rpm. Ambient temperature is 22±3° C.

[3] = system: Nannochloris sp.; experiment: 500 mL batch culture: growth, dry weight and lipid extract (gravimetric); type: cell-based; details: for effect on growth and lipid levels: 500 mL batch culture; for increase in lipid levels: 500 mL batch cultures, gravimetric (Table 30); for Lipid productivity / Change in Lipids / Specific Growth Rate: Nannochloris sp., 500 mL culture; for Change in Lipids: gravimetric, relative to averaged control without DMSO; for Specific Growth Rate: mid-exponential growth phase
Experimental: as §1, §2, §3, §4, §5, §6

[4] = system: Nannochloropsis oculata; experiment: Lipid composition of batch culture extracts (fatty acid saturation / PUFA by 1H NMR, MALDI-TOF, GC/MS); type: cell-based; details: for SFAs (% of total lipids) / n3 PUFAs (% of UFAs) / All other PUFAs and MUFAs (% of UFAs) / UFAs (% of total lipids): 1H NMR; for SFAs (% of total lipids): Normal 24; for n3 PUFAs (% of UFAs): Normal 37; for All other PUFAs and MUFAs (% of UFAs): Normal 63; for UFAs (% of total lipids): Normal 76; for SFAs (%) / MUFAs (%) / n3 PUFAs (%) / PUFAs (%): N. oculata, n=1; for SFAs (%): Normal 0 ± 1; for MUFAs (%): Normal 4 ± 7; for n3 PUFAs (%): Normal 28 ± 4; for PUFAs (%): Normal 96 ± 7
Experimental: The nonpolar algal extracts were harvested from 500 mL cultures when indicated on growth curves, a minimum of 3 days into stationary phase. […] Cells were crushed and nonpolar lipids were extracted by sonication (Fisher Scientific Model 120 Sonic Dismembrator, ThermoFisher, San Jose) for 1 minute in chloroform, followed by chloroform-methanol extractions, washed with PBS butter, and dried under vacuum.^55-60 The crude non-polar algae extracts were then analyzed by ^1H Nuclear Magnetic Resonance (^1H NMR) for verification of TAG presence and examination of the purity of the extract (determination of level of chlorophyll). The extracts were then divided for analysis; one part for transesterification, one part to save as crude extract, and one part for SPE separation and MALDI-TOF analysis of TAGs.
Triacylglycerols can be isolated by solid-phase extraction (SPE) with 500 mg silica SPE cartridges (Silicycle, Quebec). The nonpolar extract is dissolved in 300 μL hexanes, and loaded on the SPE cartridge primed with hexanes. A mixture of 80:20:1 hexanes/diethyl ether/acetic acid was used as mobile phase to elute the TAGs.^61 SPE removes any chlorophyll in this process. Residual polar fraction containing polar lipids and chlorophyll was obtained by elution with acetone. All extracts and TAG fractions were dried under vacuum and stored under argon in amber vials at −20° C. before spectroscopic analysis. After SPE, the purified TAG fraction was reanalyzed with ^1H NMR spectroscopy for TAG characterization.
The TOF was in Reflectron mode with laser intensity from 5500-6500 Volts. Each acquisition consisted of 2500 shots with a focus mass of 900 Da, and a scan range of m/z 400-1100. Multiple acquisition scans were performed at different laser intensities to determine optimal conditions. Samples for the MALDI-TOF were diluted to 5 mg/mL in hexane, and spotted in the fast-evaporation method in a 1:2 ratio with DHB (2,5-dihydroxybenzoic acid) as the matrix. Re-spotting with methanol allowed for the matrix and sample to mix without hexane interactions, and allowed for better crystal formation. All samples on MALDI plate were allowed to dry before MS analysis. Data was normalized to base peak in all cases.
After the initial weight was recorded, the nonpolar extract set aside for transesterification was dissolved in 3.0 mL of 0.6 M sulfuric acid in methanol and stirred vigorously at 60° C. for 45 minutes.
Initial GC/MS temperature was 50° C. and end was 200° C. over at a one hour period for optimal FAME peak separation.
Peak assignment of fatty acids and their derivatives are based on NMR spectroscopic studies of previously reported algal lipid extracts^9 and comparison to standards such as olive oil (ACROS) and fatty acid mixtures.
We developed a quick and robust method to screen if the screened compound effect fatty acid saturation levels using ^1H NMR spectroscopy. The amount of saturated fatty acids (SFA), monounsaturated fatty acids (MUFAs), and polyunsaturated fatty acids (PUFAs) was determined using peak area ratios.
Calculated based on ^1H NMR integral ratios for the proton signals for the methyl group of PUFA components vs. the methyl groups of monounsaturated and saturated components.

[5] = system: Nannochloris sp.; experiment: Microplate assay: growth (absorbance 680 nm) and intracellular lipids (Nile Red fluorescence); type: cell-based
Experimental: as §7, §8, §9, §10, §11

[6] = system: Phaeodactylum tricornutum; experiment: as above; type: cell-based
Experimental: as §7, §8, §9, §10, §11

[7] = system: Nannochloropsis oculata; details: for % Increase based on Nile Red Fluorescence Intensity: DMSO delivery, added t=day 0
[8] = system: microalgae; experiment: 500 mL batch culture (growth, gravimetric lipids), algae strain not stated; type: cell-based; details: 500 mL batch cultures (Table 30)
[9] = system: Nannochloropsis salina; experiment: 500 mL batch culture: growth, dry weight and lipid extract (gravimetric); type: cell-based; details: for effect on growth and lipid levels: 500 mL batch culture
Experimental: as §1, §2, §3
Cultures were harvested at day 6 in stationary phase. Cultures were pelleted, lyophilized, and extracted side-by-side. The experiment was performed in triplicate.
The nonpolar algal extracts were harvested from 500 mL cultures when indicated on growth curves, a minimum of 3 days into stationary phase. […] Cells were crushed and nonpolar lipids were extracted by sonication (Fisher Scientific Model 120 Sonic Dismembrator, ThermoFisher, San Jose) for 1 minute in chloroform, followed by chloroform-methanol extractions, washed with PBS butter, and dried under vacuum.^55-60 The crude non-polar algae extracts were then analyzed by ^1H Nuclear Magnetic Resonance (^1H NMR) for verification of TAG presence and examination of the purity of the extract (determination of level of chlorophyll).
as §5, §6

[10] = system: microalgae; experiment: Microplate assay (growth, Nile Red lipids), algae strain not stated
[11] = system: Phaeodactylum tricornutum; experiment: 500 mL batch culture: growth, dry weight and lipid extract (gravimetric); type: cell-based; details: 500 mL batch culture
[12] = biological target: PKC; details: PKC; cited from earlier work
[13] = 500 mL batch cultures, gravimetric (Table 30)
[14] = N. oculata, 4 nM, harvested day 6 of stationary phase, n=3
[15] = N. oculata, 500 mL culture, 4 nM
[16] = microplate dose-response screening
[17] = 200 nM, initial microplate screen, relative to control
[18] = 20 μM, initial microplate screen, relative to control
[19] = DMSO at 0.4% v/v, batch culture
[20] = N. oculata, DMSO average, harvested day 6 of stationary phase, n=3
[21] = 0.4% by volume, 500 mL culture, day 6 in stationary phase
[22] = N. oculata, 500 mL culture, 400 nM

In the case of `C=C[C@@]1(C)CC(=O)[C@]2(O)[C@@]3(C)[C@@H](O)CCC(C)(C)[C@@H]3[C@H](O)[C@H](OC(C)=O)[C@@]2(C)O1` [Forskolin, (3R,4aR,5S,6S,6aS,10S,10aR,10bS)-6,10,10b-Trihydroxy-3,4a,7,7,10a-pentamethyl-1-oxo-3-vinyldodecahydro-1H-benzo[f]chromen-5-yl acetate], the “effect on growth and lipid levels” value [1] is reported as “increases in lipid production”, the “increase in lipid levels” value [1, 13] is reported as 84% and the Absorbance at harvest [1, 14] is reported as 2.10. The “Dry weight” value [1, 14] was 353.57 mg, the “Extract Weight” value [1, 14] was 88.67 mg and the “Number of Cells” value [1, 14] was 2.46E+09. For the same compound, the “Recovered Weight” value [1, 14] was 344.90 mg, the Lipid productivity [1, 15] was 6.4 ± 1.2 mgL^−1day^−1 and the Lipid content ([1]; N. oculata, 500 mL culture, 4 nM, dried lipid extract per dry biomass) was 25.6 ± 1.8 % w/w. The “Change in Lipids” value [1, 15] was 84%, the “Specific Growth Rate” value [1, 15] was 0.17 ± 0.02 day⁻¹ and the “lipid increase relative to the control” value [2, 16] was about 40%. The “effect on growth and lipid levels” value [3] was “increases in lipid production”, the “increase in lipid levels” value [3] was 51% and the Lipid productivity ([3]; 10 μM) was 4.5 ± 1.7 mgL^−1day^−1. For the same compound, the “Change in Lipids” value ([3]; 10 μM) was 51%, the “Specific Growth Rate” value ([3]; 10 μM) was 0.15 ± 0.05 day⁻¹ and the “SFAs (% of total lipids)” value ([4]; 40 nM) was 59 % of total lipids. The “n3 PUFAs (% of UFAs)” value ([4]; 40 nM) was 61 % of UFAs, the “All other PUFAs and MUFAs (% of UFAs)” value ([4]; 40 nM) was 39 % of UFAs and the “UFAs (% of total lipids)” value ([4]; 40 nM) was 41 % of total lipids. For the same compound, the “Nile Red percent increase” value ([5]; 13 nM, dose-response microplate screen) was 121%, the “Nile Red percent increase” value ([5]; 41.2 nM, dose-response microplate screen) was 118% and the “Absorbance (percent increase)” value [5, 17] was −5.5%. The “Nile Red percent increase” value [5, 17] was 60.6%, the “Nile Red Fluorescence % Increase” value ([5]; Nannochloris sp., compounds tested at 20 μM, initial screening, p<0.05) was 45.3% and the “lipid increase relative to the control” value [5, 16] was at least 100%. For the same compound, the “Absorbance (percent increase)” value [6, 17] was −1.2%, the “Nile Red percent increase” value [6, 17] was 103.6% and the “lipid increase relative to the control” value [6, 16] was about 40%. The “Absorbance (percent increase)” value [7, 18] was −17.3%, the “Nile Red percent increase” value [7, 18] was 50.4% and the “lipid increase relative to the control” value [7, 16] was at least 100%. The “effect on growth and lipid levels” value [8] was “positive increases in growth and lipid levels” and the “effect on growth and lipid levels” value [9] was “increases in lipid production”.
For `C[S+](C)[O-]` [DMSO, dimethylsulfoxide], the “effect on growth (deviation from control growth)” value ([10]; 0.4% v/v DMSO) was at most 10%, the “effect on growth” value ([10]; less than 0.4% v/v DMSO, microplates, any of the four microalgae strains) was “did not show a toxic or detrimental effect on the growth” and the “effect on growth” value ([10]; ≧1% v/v DMSO) was “detrimental growth effects”. For the same compound, the “increase in lipid levels relative to control without DMSO” value ([1]; 1.0% DMSO, batch cultures) was 78%, the “effect on growth and lipid levels” value [1] was “increased growth and lipid levels” and the “increase in lipid levels” value [1, 19] was 39%. The Absorbance at harvest ([1]; N. oculata, DMSO (0.4%), n=3) was 1.776 ± 0.060, the Dry weight ([1]; N. oculata, DMSO (0.4%), n=3) was 409.2 ± 105.6 and the “Extract Weight” value ([1]; N. oculata, DMSO (0.4%), n=3) was 67.2 ± 7.8. The Absorbance at harvest ([1]; N. oculata, DMSO (1%), n=2) was 1.827 ± 0.288, the Dry weight ([1]; N. oculata, DMSO (1%), n=2) was 280.4 ± 88.0 and the “Extract Weight” value ([1]; N. oculata, DMSO (1%), n=2) was 47.2 ± 11.0. The Absorbance at harvest [1, 20] was 1.83, the “Dry weight” value [1, 20] was 283.27 mg and the “Extract Weight” value [1, 20] was 56.83 mg. For the same compound, the “Number of Cells” value [1, 20] was 2.32E+09, the “Recovered Weight” value [1, 20] was 267.27 mg and the “effect on growth and cell density” value ([2]; >0.8% v/v DMSO, microplates) was “detrimental effect on growth and cell density”. For the same compound, the “effect on growth and lipid levels” value [3] was “No significant changes; also recorded: no effect, or a small decrease in growth and lipid production”, the “effect on growth and lipid levels” value [11] was “No significant changes; also recorded: decrease in growth and lipid production; also recorded: no effect, or a small decrease in growth and lipid production” and the “SFAs (%)” value ([4]; 1%) was 7%. For the same compound, the “MUFAs (%)” value ([4]; 1%) was 32%, the “n3 PUFAs (%)” value ([4]; 1%) was 17% and the “PUFAs (%)” value ([4]; 1%) was 61%. The “increase in cell density” value ([7]; 0.4% DMSO, microplate screen) was 57%, the “increase in lipid levels” value ([7]; 0.4% DMSO, microplate screen) was 75% and the “effect on growth and cell density” value ([7]; >0.8% v/v DMSO, microplates) was “detrimental effect on growth and cell density”. For the same compound, the Absorbance at harvest [9, 21] was 1.50 ± 0.13, the “Dry weight” value [9, 21] was 429.90 ± 109.74 mg and the “Extract Weight” value [9, 21] was 92.83 ± 6.37 mg. For the same compound, the “Number of Cells” value [9, 21] was 1.44E+09, the “Recovered Weight” value [9, 21] was 393.17 ± 112.84 mg and the “effect on growth and lipid levels” value [9] was “increased growth and lipid levels”. The “increase in lipid levels” value [9, 19] was 25% and the “increase in lipid levels” value ([9]; DMSO, batch culture (Table 18)) was “up to 50%”.
In the case of `COC(=O)[C@@]1(O)C[C@H]2O[C@]1(C)n1c3ccccc3c3c4c(c5c6ccccc6n2c5c31)C(=O)NC4` [K-252a], the Ki [12] is listed as 25 nM.
In the case of `CCN(CC)CCCC(C)Nc1c2ccc(Cl)cc2nc2ccc(OC)cc12.Cl.Cl` (stereo not shown) [Quinacrine, 6-Chloro-9-(4-diethylamino-1-methylbutyl-amino)-2-methoxyacridine dihydrochloride], the “increase in lipid levels” value [1, 13] is reported as 51%, the Lipid productivity [1, 22] is reported as 5.2 ± 0.6 mgL^−1day^−1 and the “Change in Lipids” value [1, 22] is reported as 51%. The “Specific Growth Rate” value [1, 22] was 0.18 ± 0.04 day⁻¹, the “Nile Red percent increase” value ([2]; 55 nM, dose-response microplate screen) was 103% and the “increase in lipid levels” value [3] was 31%. For the same compound, the Lipid productivity ([3]; 40 nM) was 4.2 ± 1.1 mgL^−1day^−1, the “Change in Lipids” value ([3]; 40 nM) was 31% and the “Specific Growth Rate” value ([3]; 40 nM) was 0.18 ± 0.01 day⁻¹. For the same compound, the “SFAs (% of total lipids)” value ([4]; 4 nM) was 53 % of total lipids, the “n3 PUFAs (% of UFAs)” value ([4]; 4 nM) was 45 % of UFAs and the “All other PUFAs and MUFAs (% of UFAs)” value ([4]; 4 nM) was 55 % of UFAs. For the same compound, the “UFAs (% of total lipids)” value ([4]; 4 nM) was 47 % of total lipids, the “SFAs (%)” value ([4]; 400 nM) was 3% and the “MUFAs (%)” value ([4]; 400 nM) was 12%. For the same compound, the “n3 PUFAs (%)” value ([4]; 400 nM) was 17%, the “PUFAs (%)” value ([4]; 400 nM) was 76% and the “% Increase based on Nile Red Fluorescence Intensity” value (shortened to “% Increase based”) [5] was 135%. For the same compound, the “% Lipid increase based on Nile red fluorescence intensity” value ([5]; Nannochloris sp., 49 nM, (water), t=day 0) was 136%, the “% Increase based” value ([5]; Nannochloris sp., 49 nM, dissolved in water, added t=day 0) was 136% and the “increase in intracellular lipids compared to the control (Nile red)” value ([5]; in water, dose-response microplate screening) was “more than 100%”. For the same compound, the “% Lipid increase based on Nile red fluorescence intensity” value ([7]; N. oculata, 244 nM, DMSO, t=day 0) was 106%, the “% Increase based” value ([7]; N. oculata, 61 pM) was 100% and the “% Increase based” value ([7]; N. oculata, 244 pM) was 106%. The “% Increase based” value ([7]; N. oculata, 976 pM) was 93%, the “% Increase based” value ([7]; N. oculata, 4 nM) was 75% and the “% Increase based” value ([7]; N. oculata, 15.6 nM) was 66%. For the same compound, the “effect on growth and lipid levels” value [8] was “positive increases in growth and lipid levels”, the Lipid productivity ([9]; N. salina, 500 mL culture, 40 nM) was 4.5 ± 1.0 mgL^−1day^−1 and the Lipid content ([9]; N. salina, 500 mL culture, 40 nM, dried lipid extract per dry biomass) was 26.5 ± 3.9 % w/w. For the same compound, the “Change in Lipids” value ([9]; N. salina, 500 mL culture, 40 nM, gravimetric, relative to averaged control without DMSO) was 6% and the “Specific Growth Rate” value ([9]; N. salina, 500 mL culture, 40 nM, mid-exponential growth phase) was 0.25 ± 0.02 day⁻¹.
